Consider one compound from patent US5783703A, “Sulfur-containing compounds method for their use and prodction” (Lederle (Japan), Ltd., priority 1993, dated 1998).

Common to all, as to test: Antibacterial activity, agar plate dilution method (MIC), Experimental Example 2
Holding throughout (format): cell-based

One assay concerns E. coli K-12 C600. To be noted: Escherichia coli, K12C600, MH agar, 37° C., 18 hours. The method, then: (§1) There was measured, by the following method, the antibacterial activity of the compound (16) which had been produced in Example 14 with use of the compound (I) of the present invention as a synthesis intermediate.
(§2) There was employed the agar plate dilution method in accordance with the standard method of the Japanese Chemotherapy Society [Chemotherapy, vol. 29, 76-79 (1981)]. Concretely, a Mueller-Hinton (MH) agar liquid medium containing the test microorganism was cultured overnight at 37° C., and the resultant culture medium was diluted with a buffered saline gelatin (BSG) solution so that the concentration of the test microorganism might be about […]. Then, with use of a microplanter, this diluted solution was inoculated each about 5 μl on MH agar media containing the test compounds. Thus, the minimum concentration of the test compound in which no growth of the test microorganism was observed after the incubation at 37° C. for 18 hours was regarded as Minimum Inhibitory Concentration (MIC). Incidentally, all of the test organisms used here were standard strains.

Another assay relates to S. schottmuelleri 8006. Conditions: MH agar, 37° C., 18 hours. The method, then:
as §1, §2

For another assay, the system named is S. enteritidis G14. To be noted: Salmonella enterica, MH agar, 37° C., 18 hours. The method, then:
as §1, §2

The test system of the next assay is E. aerogenes ATCC 13048. Conditions: Klebsiella aerogenes, ATCC13048, MH agar, 37° C., 18 hours. The method, then: as §1, §2
Another assay deals with S. aureus FDA209P JC-1. To be noted: Staphylococcus aureus, MH agar, 37° C., 18 hours. On the procedure:
as §1, §2

For the next assay, the system named is M. luteus ATCC 9341. To be noted: Micrococcus luteus, ATCC9341, MH agar, 37° C., 18 hours. The method, then:
as §1, §2

A further assay relates to S. typhimurium 11D971. To be noted: Salmonella enterica, MH agar, 37° C., 18 hours. The method, then: as §1, §2
For a further assay, the system named is B. subtilis ATCC 6633. Conditions: Bacillus subtilis, ATCC6633, MH agar, 37° C., 18 hours. On the procedure:
as §1, §2

The next assay concerns S. marcescens IAM 1184. Conditions: Serratia marcescens, IAM1184, MH agar, 37° C., 18 hours. On the procedure:
as §1, §2

The subject of the next assay is S. typhi 901. To be noted: Salmonella enterica, 18 h. On the procedure: as §1, §2
A further assay has as its system S. aureus MS353. Conditions: Staphylococcus aureus, MH agar, 37° C., 18 hours. On the procedure:
as §1, §2

The test system of another assay is S. pyogenes Cook. Conditions: Streptococcus pyogenes, MH agar, 37° C., 18 hours. The method, then: as §1, §2
For the next assay, the system named is E. cloacae 963. Conditions: Enterobacter cloacae, MH agar, 37° C., 18 hours. On the procedure:
as §1, §2

The test system of a further assay is S. aureus Terajima. Conditions: Staphylococcus aureus, MH agar, 37° C., 18 hours. The method, then: as §1, §2
Another assay relates to P. rettgeri IFO 3850. To be noted: Providencia rettgeri, IFO3850, MH agar, 37° C., 18 hours. On the procedure: as §1, §2
A further assay deals with P. vulgaris OX-19. To be noted: Proteus vulgaris, OX19, MH agar, 37° C., 18 hours. The method, then:
as §1, §2

A further assay concerns K. pneumoniae PCI-602. Conditions: Klebsiella pneumoniae, PCI602, MH agar, 37° C., 18 hours. On the procedure:
as §1, §2

The next assay deals with M. morganii IFO 3848. To be noted: Morganella morganii, IFO3848, MH agar, 37° C., 18 hours. On the procedure:
as §1, §2

The test system of another assay is S. paratyphi 1015. Conditions: Salmonella enterica, 18 h. On the procedure: as §1, §2
A further assay has as its system E. coli NIHJ JC-2. Conditions: Escherichia coli, NIHJJC2, MH agar, 37° C., 18 hours. The method, then: as §1, §2
Another assay deals with P. vulgaris HX-19. Conditions: Proteus vulgaris, HX19, MH agar, 37° C., 18 hours. On the procedure: as §1, §2
In another assay the test system is P. mirabilis IFO 3849. To be noted: Proteus mirabilis, IFO3849, MH agar, 37° C., 18 hours. On the procedure: as §1, §2

Structures are written as SMILES. Converted amounts (≈) assume the structure as drawn.

On to `C[C@@H](O)[C@H]1C(=O)N2C(C(=O)O)=C(SC3CN(C4=NCCS4)C3)[C@H](C)[C@H]12` [compound (16), (1R, 5S, 6S)-2-[1-(1,3-thiazolin-2-yl)azetidin-3-yl]thio-6-[(R)-1-hydroxyethyl]-1-methylcarbapen-2-em-3-carboxylate], for which the minimum inhibitory concentration (MIC) (as a rule, the smallest concentration in the dilution series that meets the test's criterion for growth inhibition) against E. coli K-12 C600 is 0.1 µg/mL (≈ 0.261 µM); in the assay on S. schottmuelleri 8006, 0.025 µg/mL (≈ 0.0652 µM); against S. enteritidis G14, 0.39 µg/mL (≈ 1.02 µM); against E. aerogenes ATCC 13048, 0.1 µg/mL (≈ 0.261 µM); against S. aureus FDA209P JC-1, 0.013 µg/mL (≈ 0.0339 µM); in the assay with M. luteus ATCC 9341, 0.2 µg/mL (≈ 0.522 µM). For the same compound, the MIC against S. typhimurium 11D971 was 0.025 µg/mL (≈ 0.0652 µM); against B. subtilis ATCC 6633 it was 0.025 µg/mL (≈ 0.0652 µM); against S. marcescens IAM 1184 it was 0.05 µg/mL (≈ 0.13 µM); against S. typhi 901 it was at most 0.006 µg/mL; in the assay with S. aureus MS353, at most 0.006 µg/mL; in the assay on S. pyogenes Cook it was at most 0.006 µg/mL. For the same compound, the MIC against E. cloacae 963 was 0.05 µg/mL (≈ 0.13 µM); against S. aureus Terajima it was at most 0.006 µg/mL; with P. rettgeri IFO 3850, 0.39 µg/mL (≈ 1.02 µM); in the assay with P. vulgaris OX-19 it was 0.1 µg/mL (≈ 0.261 µM); against K. pneumoniae PCI-602, 0.013 µg/mL (≈ 0.0339 µM); with M. morganii IFO 3848, 0.39 µg/mL (≈ 1.02 µM). For the same compound, the MIC with S. paratyphi 1015 was found to be 0.05 µg/mL (≈ 0.13 µM); with E. coli NIHJ JC-2 it was 0.013 µg/mL (≈ 0.0339 µM); in the assay with P. vulgaris HX-19, 0.1 µg/mL (≈ 0.261 µM); against P. mirabilis IFO 3849, 0.39 µg/mL (≈ 1.02 µM).
